Measured values as given in US20120129842A1, “BISTHIAZOLE INHIBITORS OF PRO-MATRIX METALLOPROTEINASE ACTIVATION” (priority 2010, published 2012).

How the values were obtained:
[1] = target: T1, proMMP9(67-444;ΔFnII) (SEQ ID NO:5) (Homo sapiens, UniProt P14780, DEL216-390); assay: ThermoFluor binding assay with proMMP9(67-444;ΔFnII); details: pH 7.0
T1 construct: start methionine (N); made in house; host or cells: E. coli BL21(DE3) RIL
T1 sequence (P14780 with tags, fused parts or gaps DEL216-390): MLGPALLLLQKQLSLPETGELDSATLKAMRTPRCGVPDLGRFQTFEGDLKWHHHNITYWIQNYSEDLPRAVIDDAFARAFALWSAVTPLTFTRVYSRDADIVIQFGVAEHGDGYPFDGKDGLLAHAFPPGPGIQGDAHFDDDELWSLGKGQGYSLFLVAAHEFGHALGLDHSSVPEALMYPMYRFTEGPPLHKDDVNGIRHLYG
Outline: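 Thermal shift binding with 3.5 μM proMMP9(67-444;ΔFnII) and 50 μM 1,8-ANS in 50 mM HEPES pH 7.0, 100 mM NaCl, 2.5 mM MgCl2, 300 μM CaCl2, 0.001% Tween-20, with serially diluted compound. Heated 40 to 90° C at 1° C/min; fluorescence-derived Tm fitted using DSC/ThermoFluor thermodynamic parameters.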

MMP9 = target: T2, MMP9 (Rattus norvegicus, UniProt P50282); assay: Pro and active MMP9 in ankles of rats with SCW-induced arthritis by Western blot; format: in vivo; details: Day 26, four hours after AM dose, mAb-L51/82, FIG. 3A
T2 construct: Pro and active MMP9 were abundantly present in ankles of SCW-induced vehicle-treated rats; from tissue; host or cells: ankle (tibia-tarsus joint) homogenates of female Lewis rats
Method: Hind-limbs were skinned, severed just above the tibia-tarsus joint and below the metatarsals, and the tibia-tarsus joints (ankles) were weighed, snap frozen and pulverized on dry ice using a hammer and anvil. The pulverized tissue was suspended in 3 volumes (w:v) of ice-cold homogenization buffer containing 50 mM Tris pH 7.5, 150 mM NaCl, 5 mM EDTA, 1% Triton X100, 0.05% Brij 30, 10% dimethylsulfoxide and Complete EDTA-free Protease Inhibitor Cocktail (Roche Diagnostics). The suspended tissue was homogenized sequentially with a Kinematica AG Polytron and a Dounce homogenizer. Homogenates were centrifuged at 16,000×g for 10 min at 4° C. and the soluble fractions were saved. Dimethylsulfoxide was removed from a portion of each soluble fraction using PD MiniTrap™ G-25 desalting columns (GE Healthcare). Homogenates (0.25 mL), free of DMSO, were diluted with an equal volume of binding buffer (i.e., homogenization buffer without dimethylsufoxide) and adjusted to contain 50 μL of a 50% slurry of gelatin-conjugated sepharose. Following 2 hours of rotation at 4° C. the beads were washed twice in binding buffer and eluted in 100 μL 2×-reducing Laemmli buffer with heating to 95° C. for 5 minutes. […]

T2 sequence (P50282 108-708): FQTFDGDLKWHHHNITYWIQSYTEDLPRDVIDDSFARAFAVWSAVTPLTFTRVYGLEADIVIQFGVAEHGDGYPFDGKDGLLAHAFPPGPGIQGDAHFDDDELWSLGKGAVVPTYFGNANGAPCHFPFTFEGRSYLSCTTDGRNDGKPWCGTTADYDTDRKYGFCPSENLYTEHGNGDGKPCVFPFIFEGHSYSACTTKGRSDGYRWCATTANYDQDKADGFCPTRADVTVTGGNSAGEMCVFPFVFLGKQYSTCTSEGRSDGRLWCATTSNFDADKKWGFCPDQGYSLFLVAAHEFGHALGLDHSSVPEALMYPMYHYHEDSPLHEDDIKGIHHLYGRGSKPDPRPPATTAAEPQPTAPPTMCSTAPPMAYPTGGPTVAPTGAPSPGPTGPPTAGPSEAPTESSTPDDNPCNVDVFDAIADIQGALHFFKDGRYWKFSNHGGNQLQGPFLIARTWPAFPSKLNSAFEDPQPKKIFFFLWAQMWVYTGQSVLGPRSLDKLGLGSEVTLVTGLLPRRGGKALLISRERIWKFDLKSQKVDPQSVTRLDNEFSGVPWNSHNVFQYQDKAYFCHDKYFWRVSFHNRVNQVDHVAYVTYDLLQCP

In the case of Cc1nc(C)c(-c2csc(Nc3cc(S(N)(=O)=O)ccc3OC(C)C)n2)s1 [Example 64, 3-(2′,4′-Dimethyl-[4,5′]bithiazolyl-2-ylamino)-4-isopropoxy-benzenesulfonamide.HBr], the Kd [1] is reported as 260 nM and the “abundance of proMMP9 in ankles” value (MMP9) is reported as “did not reduce the abundance of proMMP9”.
